Values quoted from earlier work, collected in patent US8426470B2, “Method for alleviating signs and symptoms of spasticity” (Sun Pharmaceutical Industries Ltd., priority 2006, dated 2013).

Columns and labels:
spasticity = details: in vivo

Plasma elimination half-life (in vivo): approximately 3.5 hours
concentrations in the cerebrospinal fluid (CSF) relative to those in the plasma (in vivo): about 12%
elimination half-life from the CSF (in vivo): 4 to 5 h
fraction metabolized in the liver (remainder excreted mainly by the kidneys in unchanged form): 15%
SMILES: NCC(CC(=O)O)c1ccc(Cl)cc1 (centres unmarked) [Baclofen, 4-amino-3-(4-chlorophenyl)-butanoic acid]
lowest concentration in plasma at which a significant reduction in spasticity was observed (spasticity): 90 ng/mL
